Patent US5814631A, “Quinazoline derivatives and applications thereof” (Suntory Limited, priority 1995, dated 1998)

target: T1, human heart chymase (Homo sapiens, UniProt P23946); assay: biochemical; conditions: Chymase inhibitive activity (IC50), Ang I substrate, 37° C., 30 min, pH 7.5
T1 sequence (P23946 22-247): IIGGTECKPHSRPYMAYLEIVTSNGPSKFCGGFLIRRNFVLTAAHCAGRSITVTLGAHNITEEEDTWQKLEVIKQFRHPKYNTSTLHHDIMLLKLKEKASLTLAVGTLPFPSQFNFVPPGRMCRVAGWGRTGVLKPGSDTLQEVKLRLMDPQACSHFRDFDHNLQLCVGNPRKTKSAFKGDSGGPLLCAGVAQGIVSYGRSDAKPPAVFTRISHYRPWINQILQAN
Protocol: That is, to 10 μl of a 20 mM trisphosphate buffer (pH 7.5) containing 2MKCl were added 10 μl of purified chymase and 5 μl of a dimethylsulfoxide (hereinafter referred to as DMSO) solution of the test sample. The mixture was preincubated at 37° C. for 10 minutes, then 25 μl of a 1 mM Ang I solution was added and the mixture preincubated at 37° C. for 30 minutes. Next, 50 μl of 30% acetic acid was added to stop the enzymatic reaction. At the same time, a blind test was performed by adding, instead of the test sample solution, 5 μl of DMSO and performing the same reaction.
The reacted solution was subjected to high performance liquid chromatography using Develosil ODS-5 (made by Nomura Kagaku, .phi.4.6 mm×150 mm) and developed at a flow rate of 2.0 ml/min in 0.05% TFA by a straight concentration gradient raising the acetonitrile from 0% to 60% over 10 minutes. This was monitored by the absorbance at 210 nm and the peaks identified by comparison with standard samples of Ang I and Ang II. The peak areas were measured by an integrating meter to quantitatively analyze the Ang I and Ang II and calculate the chymase activity.

SMILES	IC50
O=C(Cn1c(=O)n(S(=O)(=O)c2ccc(Cl)cc2)c(=O)c2ccc(Cl)cc21)Nc1ccccc1 [Example 38, [7-chloro-3-(4-chlorobenzenesulfonyl)-2,4(1H,3H)-quinazolinedion-1-yl]-N-phenylacetamide]	0.063 µM
O=C(Cn1c(=O)n(S(=O)(=O)c2ccc(Cl)cc2)c(=O)c2ccc(Cl)cc21)Nc1ccc(O)cc1 [Example 39, [7-chloro-3-(4-chlorobenzenesulfonyl)-2,4(1H,3H)-quinazolinedion-1-yl]-N-(4-hydroxyphenyl)acetamide]	0.065 µM
O=C(Cn1c(=O)n(S(=O)(=O)c2ccc(Cl)cc2)c(=O)c2ccc(Cl)cc21)Nc1cccc(O)c1 [Example 40, [7-chloro-3-(4-chlorobenzenesulfonyl)-2,4(1H,3H)-quinazolinedion-1-yl]-N-(3-hydroxyphenyl)acetamide]	0.11 µM
O=C(Cn1c(=O)n(S(=O)(=O)c2ccc(Cl)cc2)c(=O)c2ccc(Cl)cc21)Nc1ccccc1O [Example 41, [7-chloro-3-(4-chlorobenzenesulfonyl)-2,4(1H,3H)-quinazolinedion-1-yl]-N-(2-hydroxyphenyl)acetamide]	0.31 µM
O=C(Cn1c(=O)n(S(=O)(=O)c2ccc(Cl)cc2)c(=O)c2ccc(Cl)cc21)Nc1ccc(C(=O)O)cc1 [Example 43, [7-chloro-3-(4-chlorobenzenesulfonyl)-2,4(1H,3H)-quinazolinedion-1-yl]-N-(4-carboxyphenyl)-acetamide]	0.42 µM
O=C(Cn1c(=O)n(S(=O)(=O)c2ccc(Cl)cc2)c(=O)c2ccc(Cl)cc21)Nc1ccc(CN2CCOCC2)cc1 [Example 44, [7-chloro-3-(4-chlorobenzenesulfonyl)-2,4(1H,3H)-quinazolinedion-1-yl]-N-(4-morpholinomethylphenyl)acetamide]	0.56 µM
NCc1ccc(NC(=O)Cn2c(=O)n(S(=O)(=O)c3ccc(Cl)cc3)c(=O)c3ccc(Cl)cc32)cc1 [Example 46, [7-chloro-3-(4-chlorobenzenesulfonyl)-2,4(1H,3H)-quinazolinedion-1-yl]-N-(4-aminomethylphenyl)acetamide]	0.32 µM

Next, values leading:

IC50	SMILES
0.5 µM	N[C@@H](CC(=O)O)C(=O)NCc1ccc(NC(=O)Cn2c(=O)n(S(=O)(=O)c3ccc(Cl)cc3)c(=O)c3ccc(Cl)cc32)cc1 [Example 48, [7-chloro-3-(4-chlorobenzenesulfonyl)-2,4(1H,3H)-quinazolinedion-1-yl]-N-(4-α-L-aspartylaminomethylphenyl)acetamide]
0.33 µM	N[C@@H](CC(=O)NCc1ccc(NC(=O)Cn2c(=O)n(S(=O)(=O)c3ccc(Cl)cc3)c(=O)c3ccc(Cl)cc32)cc1)C(=O)O [Example 50, [7-chloro-3-(4-chlorobenzenesulfonyl)-2,4(1H,3H)-quinazolinedion-1-yl]-N-(4-β-L-aspartylaminomethylphenyl)acetamide]
0.11 µM	N[C@@H](CC(=O)NCc1cccc(NC(=O)Cn2c(=O)n(S(=O)(=O)c3ccc(Cl)cc3)c(=O)c3ccc(Cl)cc32)c1)C(=O)O [Example 52, [7-chloro-3-(4-chlorobenzenesulfonyl)-2,4(1H,3H)-quinazolinedion-1-yl]-N-(3-β-L-aspartylaminomethylphenyl)acetamide]
0.05 µM	O=C(Cn1c(=O)n(S(=O)(=O)c2ccc(Cl)cc2)c(=O)c2ccc(Cl)cc21)Nc1cccnc1 [Example 53, [7-chloro-3-(4-chlorobenzenesulfonyl)-2,4(1H,3H)-quinazolinedion-1-yl]-N-(3-pyridyl)acetamide]
0.034 µM	O=C(Cn1c(=O)n(S(=O)(=O)c2ccc(Cl)cc2)c(=O)c2ccc(Cl)cc21)Nc1ccncc1 [Example 54, [7-chloro-3-(4-chlorobenzenesulfonyl)-2,4(1H,3H)-quinazolinedion-1-yl]-N-(4-pyridyl)acetamide]
0.072 µM	O=C(Cn1c(=O)n(S(=O)(=O)c2ccc(Cl)cc2)c(=O)c2ccc(Cl)cc21)Nc1ccccn1 [Example 55, [7-chloro-3-(4-chlorobenzenesulfonyl)-2,4(1H,3H)-quinazolinedion-1-yl]-N-(2-pyridyl)acetamide]
